Measured values as given in the NIST ThermoML archive (doi:10.1021/acs.jced.6b00460).

Test: xn = mol fraction of the nth substance listed
Conditions: 101 kPa, Liquid; for speed of sound: Sing-around technique in a fixed-path interferometer; for mass density: Vibrating tube method

CCCCCCCC[n+]1ccc(C)cc1.[Cl-] [4-methyl-1-octylpyridinium chloride] + O
Conditions | mass density, 308.15 K [kg/m3] | mass density, 318.15 K [kg/m3] | speed of sound, 308.15 K [m/s] | speed of sound, 318.15 K [m/s]
x2 = 0.0612 | 1107.62 | 1101.69 | 1448.6 | 1417.4
x2 = 0.1098 | 1107.56 | 1101.55 | 1452 | 1421.5
x2 = 0.2054 | 1107.52 | 1101.39 | 1457.5 | 1430.4
x2 = 0.2476 | 1107.46 | 1101.31 | 1459.9 | 1435.3
x2 = 0.3088 | 1107.3 | 1101.1 | 1463.2 | 1439.9
x2 = 0.4187 | 1106.44 | 1100.18 | 1468.7 | 1451.7
x2 = 0.4521 | 1105.97 | 1099.68 | 1472.2 | 1454.6
x2 = 0.5065 | 1104.89 | 1098.57 | 1475.1 | 1461.8
x2 = 0.6021 | 1101.75 | 1095.32 | 1483.4 | 1475
x2 = 0.6532 | 1099.16 | 1092.65 | 1487.9 | 1482.3
x2 = 0.7042 | 1095.66 | 1089.07 | 1492.5 | 1490.3
x2 = 0.7565 | 1090.74 | 1084.09 | 1497.2 | 1498.6
x2 = 0.8029 | 1084.75 | 1078.06 | 1501.7 | 1506.7
x2 = 0.8577 | 1074.57 | 1067.97 | 1505.2 | 1513.6
x2 = 0.9035 | 1061.61 | 1055.25 | 1510.4 | 1521.1
x2 = 0.9511 | 1039.58 | 1033.92 | 1514.3 | 1528.4

CCCCCCCC[n+]1ccccc1.[Br-] [1-octylpyridinium bromide] + O
Conditions | mass density, 308.15 K [kg/m3] | mass density, 318.15 K [kg/m3] | speed of sound, 308.15 K [m/s] | speed of sound, 318.15 K [m/s]
x2 = 0.0524 | 1167.92 | 1161.5 | 1507.5 | 1479.5
x2 = 0.1125 | 1167.75 | 1161.26 | 1508.2 | 1481.4
x2 = 0.2085 | 1167.44 | 1160.87 | 1509.1 | 1483.4
x2 = 0.2612 | 1167.11 | 1160.51 | 1509.6 | 1485
x2 = 0.3065 | 1166.66 | 1160.04 | 1510.1 | 1486.3
x2 = 0.4098 | 1164.79 | 1158.11 | 1511.2 | 1489.1
x2 = 0.4611 | 1163.24 | 1156.52 | 1511.8 | 1490.4
x2 = 0.5075 | 1161.35 | 1154.59 | 1512.2 | 1492
x2 = 0.6091 | 1155.07 | 1148.2 | 1513.8 | 1494.8
x2 = 0.6541 | 1151.03 | 1144.1 | 1514.5 | 1497.2
x2 = 0.7031 | 1145.4 | 1138.43 | 1515.1 | 1502.2
x2 = 0.7485 | 1138.7 | 1131.69 | 1516 | 1506.7
x2 = 0.8065 | 1127.15 | 1120.15 | 1516.8 | 1512.5
x2 = 0.8545 | 1113.64 | 1106.77 | 1517.5 | 1518
x2 = 0.9065 | 1091.9 | 1085.37 | 1518.2 | 1523.5
x2 = 0.9503 | 1062.05 | 1056.24 | 1518.8 | 1529.3
